In patent publication US5830897A, “α- and β-amino acid hydroxyethylamino sulfonamides useful as retroviral protease inhibitors” (G. D. Searle & Co., priority 1995, dated 1998):

System: not listed separately
Assay: Intrinsic toxicity of test compound in CEM cells without virus (MTT)
Format: cell-based
Conditions: human, Table 16, read-out: TD50 (the source's name)
Description: Methods, 20, 309-321 (1988).

SMILES	CC50
CC(C)CCN(C[C@@H](O)[C@H](Cc1ccccc1)NC(=O)[C@@H](NC(=O)CN(C)C)C(C)(C)C)S(C)(=O)=O [Table 16 Entry 6]	425 nM
CNC(=O)C[C@H](NC(=O)c1ccc2ccccc2n1)C(=O)N[C@@H](Cc1ccccc1)[C@H](O)CN(CCC(C)C)S(=O)(=O)c1ccccc1 [Table 16 Entry 7]	39 nM
CC(C)CCN(C[C@@H](O)[C@H](Cc1ccccc1)NC(=O)c1ccccc1)S(=O)(=O)c1ccccc1 [Table 16 Entry 8]	24 nM
CCC(C)[C@H](NC(=O)CN(C)C)C(=O)N[C@@H](Cc1ccccc1)[C@H](O)CN(CCC(C)C)S(=O)(=O)c1ccccc1 (some centres unmarked) [Table 16 Entry 14]	55000 nM

Molecular target: T1, HIV protease (Human immunodeficiency virus type 1 group M subtype B, UniProt P04585)
T1 construct: HIV protease is diluted in the assay buffer to a final enzyme concentration of 12.3 nanomolar, based on a molecular weight of 10,780
Assay: biochemical
Conditions: Table 5B
Procedure: The enzyme method is described below. […] The positive control is MVT-101 (Miller, M. et al, Science, 246, 1149 (1989)] The assay conditions are as follows:
Assay buffer: 20 mM sodium phosphate, pH 6.4
The above described substrate is dissolved in DMSO, then diluted 10 fold in assay buffer. Final substrate concentration in the assay is 80 μM.
The final concentration of DMSO is 14% and the final concentration of glycerol is 18%. The test compound is dissolved in DMSO and diluted in DMSO to 10× the test concentration; 10 μl of the enzyme preparation is added, the materials mixed and then the mixture is incubated at ambient temperature for 15 minutes. The enzyme reaction is initiated by the addition of 40 μl of substrate. The increase in fluorescence is monitored at 4 time points (0, 8, 16 and 24 minutes) at ambient temperature. Each assay is carried out in duplicate wells.

IC50	SMILES
26 nM	COc1ccc(S(=O)(=O)N(CC(C)C)CC(O)C(Cc2ccccc2)NC(=O)c2ccc3[nH]ccc3c2)cc1 (centres unmarked) [Table 5A Entry 5]
190 nM	COc1ccc(S(=O)(=O)N(CC(C)C)CC(O)C(Cc2ccccc2)NC(=O)c2ccccc2OC)cc1 (centres unmarked) [Table 5A Entry 29]

Same assay, conditions: Table 5B, @ 1 μM; read-out: % inhibition

inhibition at 1 µM	SMILES
85%	COc1ccc(S(=O)(=O)N(CC(C)C)CC(O)C(Cc2ccccc2)NC(=O)c2ccccc2CS(C)(=O)=O)cc1 (centres unmarked) [Table 5A Entry 20]
63%	COc1ccc(S(=O)(=O)N(CC(C)C)CC(O)C(Cc2ccccc2)NC(=O)c2ccc(CS(C)(=O)=O)cc2)cc1 (centres unmarked) [Table 5A Entry 22]

Same assay, conditions: Table 5B, @ 10 μM; read-out: % inhibition

inhibition at 10 µM	SMILES
59%	COc1ccc(S(=O)(=O)N(CC(C)C)CC(O)C(Cc2ccccc2)NC(=O)c2ccccc2S(C)(=O)=O)cc1 (centres unmarked) [Table 5A Entry 17]

Same assay, conditions: Table 15A, @ 0.1 uM

inhibition at 0.1 µM	SMILES
38%	CC(C)CCN(C[C@@H](O)[C@H](Cc1ccccc1)NC(=O)C(NC(=O)CN(C)C)C(C)(C)C)S(C)(=O)=O (some centres unmarked) [Table 3 Entry 2]

Same assay, conditions: Table 15A, @ 1 uM; read-out: % inhib

SMILES	inhibition at 1 µM
CC(C)CCN(C[C@@H](O)[C@H](Cc1ccccc1)NC(=O)OCc1ccccc1)S(=O)(=O)C(F)(F)F [Table 1A Entry 50]	42%
CC(C)CCN(C[C@@H](O)[C@H](Cc1ccccc1)NC(=O)OCc1ccccc1)S(=O)(=O)CCl [Table 1A Entry 52]	39%
CC(C)CCN(C[C@@H](O)[C@H](Cc1ccccc1)NC(=O)OCc1ccccc1)S(=O)(=O)c1ccccc1[N+](=O)[O-] [Table 1a Entry 3]	38%

The remaining lines, values ahead:

inhibition at 1 µM	SMILES
24%	CC(C)CCN(C[C@@H](O)[C@H](Cc1ccccc1)NC(=O)OCc1ccccc1)S(C)(=O)=O [Table 1A Entry 41]
31%	CC(C)CN(C[C@@H](O)[C@H](Cc1ccccc1)NC(=O)OCc1ccccc1)S(C)(=O)=O [Table 1A Entry 51]
90%	CC(C)CCN(C[C@@H](O)[C@H](Cc1ccccc1)NC(=O)C(NC(=O)CN(C)C)C(C)(C)C)S(C)(=O)=O (some centres unmarked) [Table 3 Entry 2]

Same assay, conditions: Table 15A, @ 10 uM; read-out: % inhib

SMILES	inhibition at 10 µM
CC(C)CCN(C[C@@H](O)[C@H](Cc1ccccc1)NC(=O)OCc1ccccc1)S(=O)(=O)C(F)(F)F [Table 1A Entry 50]	89%
CC(C)CCN(C[C@@H](O)[C@H](Cc1ccccc1)NC(=O)OCc1ccccc1)S(=O)(=O)CCl [Table 1A Entry 52]	81%
CC(C)CCN(C[C@@H](O)[C@H](Cc1ccccc1)NC(=O)OCc1ccccc1)S(=O)(=O)c1ccccc1[N+](=O)[O-] [Table 1a Entry 3]	79%

Next, values leading:

inhibition at 10 µM	SMILES
74%	CC(C)CCN(C[C@@H](O)[C@H](Cc1ccccc1)NC(=O)OCc1ccccc1)S(C)(=O)=O [Table 1A Entry 41]
76%	CC(C)CN(C[C@@H](O)[C@H](Cc1ccccc1)NC(=O)OCc1ccccc1)S(C)(=O)=O [Table 1A Entry 51]
36%	CC(C)CCN(C[C@@H](O)[C@H](Cc1ccccc1)NC(=O)OCc1ccccc1)S(=O)(=O)Cc1ccccc1 [Table 1a Entry 6]

Same assay, conditions: Table 15A, first part

SMILES	IC50
CC(C)CCN(C[C@@H](O)[C@H](Cc1ccccc1)NC(=O)[C@H](CC(N)=O)NC(=O)c1ccc2ccccc2n1)S(C)(=O)=O [Table 15A Entry 4]	27 nM
CC(C)CCN(C[C@@H](O)[C@H](Cc1ccccc1)NC(=O)OCc1ccccc1)S(=O)(=O)c1ccccc1 [drawing 314]	16 nM

Same assay, conditions: Table 15A, second part (Ex., Table, Entry)

SMILES	IC50
CC(C)CCN(C[C@@H](O)[C@H](Cc1ccccc1)NC(=O)OCc1ccccc1)S(=O)(=O)c1ccccc1 [Table 1A Entry 39]	16 nM
CC(C)CN(C[C@@H](O)[C@H](Cc1ccccc1)NC(=O)OCc1ccccc1)S(=O)(=O)c1ccc(F)cc1 [Table 1a Entry 7]	9.6 nM
CC(C)CCN(C[C@@H](O)[C@H](Cc1ccccc1)NC(=O)C(N)C(C)(C)C)S(=O)(=O)c1ccccc1 (some centres unmarked) [Table 11 Entry 1]	130 nM
CC(C)CCN(C[C@@H](O)[C@H](Cc1ccccc1)NC(=O)[C@@H](NC(=O)CBr)C(C)(C)C)S(=O)(=O)c1ccccc1 [Table 12 Entry 10]	3.3 nM

Now from value to molecule:

IC50	SMILES
11 nM	CC(C)CCN(C[C@@H](O)[C@H](Cc1ccccc1)NC(=O)OCc1ccccc1)S(=O)(=O)c1ccc(F)cc1 [Table 1a Entry 1]
16 nM	CC(C)CCN(C[C@@H](O)[C@H](Cc1ccccc1)NC(=O)OCc1ccccc1)S(=O)(=O)c1ccc2ccccc2c1 [Table 1a Entry 4]

Same assay, conditions: Table 16; enzyme assay

SMILES	IC50
CC(C)CCN(C[C@@H](O)[C@H](Cc1ccccc1)NC(=O)[C@H](CC(N)=O)NC(=O)c1ccc2ccccc2n1)S(C)(=O)=O [Table 16 Entry 4]	27 nM
COc1ccc(S(=O)(=O)N(CC(C)C)C[C@@H](O)[C@H](Cc2ccccc2)NC(=O)c2ccccc2)cc1 [Table 16 Entry 28]	14 nM
COc1ccc(S(=O)(=O)N(CC(C)C)C[C@@H](O)[C@H](Cc2ccccc2)NC(=O)c2ccccc2Cl)cc1 [Table 16 Entry 30]	6 nM
CCc1ccccc1C(=O)N[C@@H](Cc1ccccc1)[C@H](O)CN(CC(C)C)S(=O)(=O)c1ccc(OC)cc1 [Table 16 Entry 31]	10 nM
CC(C)CCN(C[C@@H](O)[C@H](Cc1ccccc1)NC(=O)OCc1ccccc1)S(=O)(=O)c1ccccc1 [drawing 326]	16 nM
